In BindingDB's records for doi:10.1021/jm058013g (Universidad San Pablo Ceu, 2005):

target: Cyclin-dependent kinase 1/G2/mitotic-specific cyclin-B (Marthasterias glacialis, UniProt P15206+Q9DGD3); assay: Kinase Inhibition Assay; details: 30 °C
Sequence (Q9DGD3 whole entry): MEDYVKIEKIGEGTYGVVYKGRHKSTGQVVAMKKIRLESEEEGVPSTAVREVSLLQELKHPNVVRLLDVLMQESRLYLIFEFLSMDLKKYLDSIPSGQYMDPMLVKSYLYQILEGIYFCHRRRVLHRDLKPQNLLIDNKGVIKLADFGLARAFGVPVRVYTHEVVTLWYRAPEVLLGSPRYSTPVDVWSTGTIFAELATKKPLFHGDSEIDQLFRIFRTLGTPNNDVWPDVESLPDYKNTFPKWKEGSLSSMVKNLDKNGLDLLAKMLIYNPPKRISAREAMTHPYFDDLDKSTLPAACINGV
Sequence (P15206 whole entry): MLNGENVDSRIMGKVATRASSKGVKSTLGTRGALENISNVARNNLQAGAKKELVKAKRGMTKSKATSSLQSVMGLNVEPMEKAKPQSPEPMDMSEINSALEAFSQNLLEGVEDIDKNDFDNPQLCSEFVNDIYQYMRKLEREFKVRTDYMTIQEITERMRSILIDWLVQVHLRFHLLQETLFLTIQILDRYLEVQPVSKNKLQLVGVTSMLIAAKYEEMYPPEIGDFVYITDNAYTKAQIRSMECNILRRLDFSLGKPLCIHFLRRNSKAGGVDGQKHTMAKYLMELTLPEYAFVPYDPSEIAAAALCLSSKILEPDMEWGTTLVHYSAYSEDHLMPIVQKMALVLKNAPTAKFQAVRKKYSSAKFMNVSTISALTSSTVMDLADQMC

SMILES	IC50 [µM]
Nc1nn(CCOCCO)c2nnc(-c3ccccc3)c(-c3ccccc3)c12 [2-[2-(3-Amino-4,5-diphenyl-1H-pyrazolo[3,4-c]pyridazin-1-yl)ethoxy]ethanol]	> 50
CC(=O)Nc1n[nH]c2nnc(-c3ccccc3)c(-c3ccccc3)c12 [N-{4,5-diphenyl-1H-pyrazolo[3,4-c]pyridazin-3-yl}acetamide]	> 50
CC/N=C(\S)Nc1[nH]nc2nnc(-c3ccco3)cc12 [3-ethyl-1-[5-(furan-2-yl)-1H-pyrazolo[3,4-c]pyridazin-3-yl]thiourea]	> 50
CC(=O)Nc1nn(C(C)=O)c2nnc(-c3ccccc3)c(-c3ccccc3)c12 [3-Acetamido-1-acetyl-4,5-diphenyl-1H-pyrazolo[3,4-c]-pyridazine]	> 50
Nc1nn(COCCO)c2nnc(-c3ccccc3)c(-c3ccccc3)c12 [2-[(3-Amino-4,5-diphenyl-1H-pyrazolo[3,4-c]pyridazin-1-yl)methoxy]ethanol]	> 50
CC(=O)n1nc(N)c2c(-c3ccccc3)c(-c3ccccc3)nnc21 [1-{3-amino-4,5-diphenyl-1H-pyrazolo[3,4-c]pyridazin-1-yl}ethan-1-one]	> 50
Nc1nn(Cc2ccccc2)c2nnc(-c3ccccc3)c(-c3ccccc3)c12 [3-Amino-1-benzyl-4,5-diphenyl-1H-pyrazolo[3,4-c]pyridazine]	> 50
Oc1[nH]nc2nnc(-c3ccccc3)c(-c3ccccc3)c12 [4,5-diphenyl-1H-pyrazolo[3,4-c]pyridazin-3-ol]	> 50

same assay, conditions: pH 7.2; 30 °C

SMILES	IC50 [µM]
Nc1n[nH]c2nncc(-c3ccccc3)c12 [4-phenyl-1H-pyrazolo[3,4-c]pyridazin-3-amine]	> 50
Nc1n[nH]c2nnc(-c3ccc([N+](=O)[O-])cc3)c(-c3ccc([N+](=O)[O-])cc3)c12 [4,5-bis(4-nitrophenyl)-1H-pyrazolo[3,4-c]pyridazin-3-amine]	> 50
Nc1n[nH]c2nnc(-c3ccc(C(F)(F)F)cc3)c(-c3ccc(C(F)(F)F)cc3)c12 [3-Amino-4,5-bis(p-trifluoromethylphenyl)-1H-pyrazolo-[3,4-c]pyridazine]	> 50
Nc1n[nH]c2nnc(-c3ccc(-c4ccccc4)cc3)c(-c3ccc(-c4ccccc4)cc3)c12 [3-Amino-4,5-bis(4-biphenyl)-1H-pyrazolo[3,4-c]pyridazine]	> 50
Nc1n[nH]c2nnc(-c3ccccc3)cc12 [Pyrazolopyridazine deriv. 1n]	4
Nc1ccc(-c2nnc3[nH]nc(N)c3c2-c2ccc(N)cc2)cc1 [3-Amino-4,5-bis(p-aminophenyl)-1H-pyrazolo[3,4-c]-pyridazine]	> 50
Nc1n[nH]c2nnc(-c3ccccn3)c(-c3ccccn3)c12 [4,5-bis(pyridin-2-yl)-1H-pyrazolo[3,4-c]pyridazin-3-amine]	> 50
COc1ccc(-c2nnc3[nH]nc(N)c3c2-c2ccc(OC)cc2)cc1 [3-Amino-4,5-bis(p-methoxyphenyl)-1H-pyrazolo[3,4-c]-pyridazine]	15
Cc1n[nH]c2nnc(N)c-2c1C [4,5-dimethyl-1H-pyrazolo[3,4-c]pyridazin-3-amine]	> 50
Cc1n[nH]c2nnc(N)c-2c1-c1ccccc1 [5-methyl-4-phenyl-1H-pyrazolo[3,4-c]pyridazin-3-amine]	> 50
CC(C)(C)c1ccc(-c2nnc3[nH]nc(N)c3c2-c2ccc(C(C)(C)C)cc2)cc1 [4,5-bis(4-tert-butylphenyl)-1H-pyrazolo[3,4-c]pyridazin-3-amine]	> 50
Nc1n[nH]c2nnc3c4ccccc4c4ccccc4c3c12 [17,18,20,21-tetraazapentacyclo[12.7.0.0^{2,7}.0^{8,13}.0^{15,19}]henicosa-1(21),2,4,6,8,10,12,14,16,19-decaen-16-amine]	> 50
